Assay results: patent publication US20210171948A1, “COMPOSITIONS AND METHODS FOR TARGETING GLYPICAN-2 IN THE TREATMENT OF CANCER” (Shepherd Therapeutics, Inc., priority 2019, published 2021)
d = 2'-deoxy (DNA); r = 2'-OH (RNA)

Assays:
[1] = tested on: GPC2 mRNA; test: GPC2 mRNA knockdown in neuroblastoma cell lines (Example 4); assay type: cell-based, human; conditions: for Degree of GPC2 knockdown among sequences 3, 5, 12-15: CHP212, SKNAS and SHSY5Y neuroblastoma cell lines, 96 hour incubation (FIG. 3A)
Method: GPC2 mRNA knockdown was assessed in multiple neuroblastoma cell lines. Cells were transfected with either a scrambled control siRNA, with GPC2 siRNA sequences 3 or 5 from Table 7, or with siRNA sequences generated by Dharmacon (sequences 12-15 from Table 7) using the RNAiMAX Lipofectamine kit (Invitrogen, Carlsbad, Calif.) as previously described. Following a 96 hour incubation period, total RNA samples were collected to compare knockdown efficiency and viability was measured in parallel plated cells.
The extent of GPC2 mRNA reduction was assessed with additional GPC2 siRNA sequences in the CHP212 neuroblastoma cell line. Cells were transfected with either a scrambled control siRNA or with GPC2 siRNA sequences 3 or 5, or with siRNA sequences 6-11 (Sigma) using the RNAiMAX Lipofectamine kit (Invitrogen, Carlsbad, Calif.) as previously described. Following a 96 hour incubation period, total RNA samples were collected and viability was measured in parallel plated cells.
The extent of GPC2 mRNA reduction (knockdown) and corresponding protein level expression changes were assessed in three neuroblastoma cell lines following siRNA knockdown of GPC2. The CHP212 neuroblastoma cell line (FIG. 5A and FIG. 5D), the SH-SY5Y neuroblastoma cell line (FIG. 5B and FIG. 5E) and the CHLA90 neuroblastoma cell line (FIG. 5C and FIG. 5F) were transfected with GPC2 siRNA sequences 5 and 7 from Table 7 and a scrambled control siRNA using the RNAiMAX Lipofectamine kit (Invitrogen, Carlsbad, Calif.) as previously described. Following a 24, 48, or 72 hour incubation period, cells were washed and total RNA was isolated for measuring GPC2 mRNA expression. For protein analysis, cells were fixed, immunostained using an antibody against GPC2 protein, protein expression was measured via flow cytometry. As shown, GPC2 mRNA knockdown was observed beginning at the 24 hr time point and lasted for at least 72 hours. GPC2 protein expression started to decrease at the 48 hr time point.

[2] = tested on: GPC2 mRNA; test: GPC2 mRNA knockdown in neuroblastoma cell lines, representative data from a separate experiment (Tables 10-14); assay type: cell-based, human; design: concentration or dose not given beside the values
[3] = tested on: CHLA-90 cells; test: Cyclophosphamide IC50 in siRNA-transfected cells, Cell Titer Glo 2.0 viability (Example 7); assay type: cell-based; conditions: for IC50: CHLA-90 cells transfected with the labelled siRNA, cyclophosphamide added 24 hr post transfection, 72 hour incubation
Method: (§1) GPC2 mRNA expression was reduced with the indicated siRNAs and changes in cell viability were assessed in multiple neuroblastoma cell lines. Cells were transfected with either a control siRNA or with GPC2 siRNA sequences 3, 5 or 7 from Table 7 using the RNAiMAX Lipofectamine kit (Invitrogen, Carlsbad, Calif.) as previously described in 96 wells for viability assays. Cyclophosphamide was added at increasing concentrations (0-20 uM) to transfected cells at 24 hr post transfection. Following a 72 hour incubation period, viability measurements were made using Cell Titer Glo 2.0.

[4] = tested on: CHP212 cells; test: as above; assay type: cell-based; conditions: for Data Summary: effect of knockdown on sensitivity to cyclophosphamide: CHP212; for IC50: CHP212 cells transfected with the labelled siRNA, cyclophosphamide added 24 hr post transfection, 72 hour incubation
Method: as §1

[5] = tested on: SH-SY5Y cells; test: as above; assay type: cell-based; conditions: for Data Summary: effect of knockdown on sensitivity to cyclophosphamide: SH-SY5Y; for IC50: SH-SY5Y cells transfected with the labelled siRNA, cyclophosphamide added 24 hr post transfection, 72 hour incubation
Method: as §1

[6] = tested on: SK-N-BE2 cells; test: as above; assay type: cell-based; conditions: for Data Summary: effect of knockdown on sensitivity to cyclophosphamide: SK-N-BE2; for IC50: SK-N-BE2 cells transfected with the labelled siRNA, cyclophosphamide added 24 hr post transfection, 72 hour incubation
Method: as §1

[7] = tested on: CHLA-90 cells; test: Doxorubicin IC50 in siRNA-transfected cells, Cell Titer Glo viability (Example 8); assay type: cell-based; conditions: for IC50: CHLA-90 cells transfected with the labelled siRNA, doxorubicin added 24 hours post transfection, 72 hour incubation
Method: as §1, with “reduced” for “reduced with the indicated siRNAs”, “with GPC-2” for “with GPC2”, “assays. Doxorubicin” for “assays. Cyclophosphamide”, “concentrations (0-5” for “concentrations (0-20”, “24 hours” for “24 hr”, “Titer Glo.” for “Titer Glo 2.0.”

[8] = tested on: CHP212 cells; test: as above; assay type: cell-based; conditions: for Data Summary: effect of knockdown on sensitivity to doxorubicin: CHP212; for IC50: CHP212 cells transfected with the labelled siRNA, doxorubicin added 24 hours post transfection, 72 hour incubation
Method: as §1, with “reduced” for “reduced with the indicated siRNAs”, “with GPC-2” for “with GPC2”, “assays. Doxorubicin” for “assays. Cyclophosphamide”, “concentrations (0-5” for “concentrations (0-20”, “24 hours” for “24 hr”, “Titer Glo.” for “Titer Glo 2.0.”

[9] = tested on: SH-SY5Y cells; test: as above; assay type: cell-based; conditions: SH-SY5Y cells transfected with the labelled siRNA; doxorubicin added 24 hours post transfection, 72 hour incubation
Method: as §1, with “reduced” for “reduced with the indicated siRNAs”, “with GPC-2” for “with GPC2”, “assays. Doxorubicin” for “assays. Cyclophosphamide”, “concentrations (0-5” for “concentrations (0-20”, “24 hours” for “24 hr”, “Titer Glo.” for “Titer Glo 2.0.”

[10] = tested on: SK-N-BE2 cells; test: as above; assay type: cell-based; conditions: for IC50: SK-N-BE2 cells transfected with the labelled siRNA, doxorubicin added 24 hours post transfection, 72 hour incubation
Method: as §1, with “reduced” for “reduced with the indicated siRNAs”, “with GPC-2” for “with GPC2”, “assays. Doxorubicin” for “assays. Cyclophosphamide”, “concentrations (0-5” for “concentrations (0-20”, “24 hours” for “24 hr”, “Titer Glo.” for “Titer Glo 2.0.”

[11] = tested on: CHLA-90 cells; test: Etoposide IC50 in siRNA-transfected cells, Cell Titer Glo 2.0 viability (Example 9); assay type: cell-based; conditions: for IC50: CHLA-90 cells transfected with the labelled siRNA, etoposide added 24 hours post transfection, 72 hour incubation
Method: as §1, with “reduced” for “reduced with the indicated siRNAs”, “Etoposide” for “Cyclophosphamide”, “(0-15” for “(0-20”, “hours” for “hr”, “measurement” for “measurements”

[12] = tested on: CHP212 cells; test: as above; assay type: cell-based; conditions: for IC50: CHP212 cells transfected with the labelled siRNA, etoposide added 24 hours post transfection, 72 hour incubation
Method: as §1, with “reduced” for “reduced with the indicated siRNAs”, “Etoposide” for “Cyclophosphamide”, “(0-15” for “(0-20”, “hours” for “hr”, “measurement” for “measurements”

[13] = tested on: SH-SY5Y cells; test: as above; assay type: cell-based; conditions: for Data Summary: effect of knockdown on sensitivity to etoposide: SH-SY5Y; for IC50: SH-SY5Y cells transfected with the labelled siRNA, etoposide added 24 hours post transfection, 72 hour incubation
Method: as §1, with “reduced” for “reduced with the indicated siRNAs”, “Etoposide” for “Cyclophosphamide”, “(0-15” for “(0-20”, “hours” for “hr”, “measurement” for “measurements”

[14] = tested on: SK-N-BE2 cells; test: as above; assay type: cell-based; conditions: for Data Summary: effect of knockdown on sensitivity to etoposide: SK-N-BE2; for IC50: SK-N-BE2 cells transfected with the labelled siRNA, etoposide added 24 hours post transfection, 72 hour incubation
Method: as §1, with “reduced” for “reduced with the indicated siRNAs”, “Etoposide” for “Cyclophosphamide”, “(0-15” for “(0-20”, “hours” for “hr”, “measurement” for “measurements”

[15] = CHLA-90, compared to scrambled siRNA control
[16] = CHLA-136, compared to scrambled siRNA control
[17] = CHLA-172, compared to scrambled siRNA control
[18] = CHP212, compared to scrambled siRNA control
[19] = KELLY, compared to scrambled siRNA control
[20] = SH-SY5Y, compared to scrambled siRNA control
[21] = SK-N-BE2, compared to scrambled siRNA control
[22] = SKNAS, compared to scrambled siRNA control

Substance	Degree of GPC2 knockdown among sequences 3, 5, 12-15 [1]	% KD; percent GPC2 mRNA reduction (knockdown) [2, 15] [%]	% KD; percent GPC2 mRNA reduction (knockdown) [2, 16] [%]	% KD; percent GPC2 mRNA reduction (knockdown) [2, 17] [%]	% KD; percent GPC2 mRNA reduction (knockdown) [2, 18] [%]	% KD; percent GPC2 mRNA reduction (knockdown) [2, 19] [%]	% KD; percent GPC2 mRNA reduction (knockdown) [2, 20] [%]	% KD; percent GPC2 mRNA reduction (knockdown) [2, 21] [%]	% KD; percent GPC2 mRNA reduction (knockdown) [2, 22] [%]	IC50 [3] [nM]	Data Summary: effect of knockdown on sensitivity to cyclophosphamide [4]	IC50 [4] [nM]	Data Summary: effect of knockdown on sensitivity to cyclophosphamide [5]	IC50 [5] [nM]	Data Summary: effect of knockdown on sensitivity to cyclophosphamide [6]	IC50 [6] [nM]	IC50 [7] [nM]	Data Summary: effect of knockdown on sensitivity to doxorubicin [8]	IC50 [8] [nM]	IC50 [9] [nM]	other results
GPC2 siRNA 3: siRNA duplex: sense CCUGCUUGGACCUCGAUAA[dT][dT] (SEQ ID NO: 207), anti-sense UUAUCGAGGUCCAAGCAGG[dT][dT] (SEQ ID NO: 208) (sense CCUGCUUGGACCUCGAUAANN; antisense UUAUCGAGGUCCAAGCAGGNN; 3' dTdT overhangs, chemistry not fully specified; listed as Homo sapiens)	greater	50	25	5	60	65	55	55	40	30000	increases sensitivity to	870	increases sensitivity to	1500	increases sensitivity to	2410	350	does not increase sensitivity	30	80	IC50 [10]: 1000 nM; IC50 [11]: 350 nM; IC50 [12]: 30 nM; Data Summary: effect of knockdown on sensitivity to etoposide [13]: 7 increases sensitivity to etoposide; IC50 [13]: 80 nM; Data Summary: effect of knockdown on sensitivity to etoposide [14]: 7 increases sensitivity to etoposide; IC50 [14]: 1000 nM
GPC2 siRNA 5: siRNA duplex: sense CUCAGUAGCCCAGCACUCU[dT][dT] (SEQ ID NO: 211), anti-sense AGAGUGCUGGGCUACUGAG[dT][dT] (SEQ ID NO: 212) (sense CUCAGUAGCCCAGCACUCUTT; antisense AGAGUGCUGGGCUACUGAGTT; sugars from the 5' end r19 d2, backbone not given here; listed as Homo sapiens)	greater	55	35	8	70	75	75	68	70	20000	increases sensitivity to	450	increases sensitivity to	300	increases sensitivity to	1800	250	does not increase sensitivity	20	50	Time for which reduced GPC2 mRNA expression was sustained ([1]; CHLA90 neuroblastoma cells (FIG. 5C)): 72 h; Time point at which GPC2 mRNA knockdown was first observed ([1]; CHP212, SH-SY5Y and CHLA90 neuroblastoma cell lines): 24 h; Degree of GPC2 knockdown among sequences 3, 5, 6-11 ([1]; CHP212 neuroblastoma cell line, 96 hour incubation (FIG. 4A)): greater; Time for which reduced GPC2 mRNA expression was sustained ([1]; CHP212 neuroblastoma cells (FIG. 5A)): 72 h; Time for which reduced GPC2 mRNA expression was sustained ([1]; SH-SY5Y neuroblastoma cells (FIG. 5B)): 72 h; Data Summary: effect of knockdown on sensitivity to cyclophosphamide ([3]; CHLA-90): increases sensitivity to; Data Summary: effect of knockdown on sensitivity to doxorubicin ([7]; CHLA-90): increases sensitivity to; Data Summary: effect of knockdown on sensitivity to doxorubicin ([10]; SK-N-BE2): increases sensitivity to; IC50 [10]: 20 nM; Data Summary: effect of knockdown on sensitivity to etoposide ([11]; CHLA-90): increases sensitivity to etoposide; IC50 [11]: 250 nM; Data Summary: effect of knockdown on sensitivity to etoposide ([12]; CHP212): increases sensitivity to etoposide; IC50 [12]: 20 nM; Data Summary: effect of knockdown on sensitivity to etoposide [13]: 7 increases sensitivity to etoposide; IC50 [13]: 50 nM; Data Summary: effect of knockdown on sensitivity to etoposide [14]: 7 increases sensitivity to etoposide; IC50 [14]: 20 nM
